Experimental findings from patent US20120010075A1 (priority 2009, published 2012) are described below.

The test system of one data set is Phytophthora infestans. It counts as in vivo, Phytophthora infestans on tomato. The conditions noted are these: hydrazone 50 ppm with 50 μM CuCl2.2H2O, applied 24 h before inoculation; assessed 7 days after inoculation; tomato late blight.
Data set [1] deals with Leptosphaeria nodorum (LEPTNO). The data set is described as follows: In vitro fungitoxicity of hydrazones with and without copper towards Leptosphaeria nodorum (Example 26). It counts as cell-based. The conditions noted are these: test compound Concn. 0.05 μg/mL, 72 h at 25° C.; for inhibition of growth at 0.05 µg/mL: Parastagonospora nodorum, 72 h, copper-minus medium, read-out: LEPTNO % Inhn. Minus Copper Observed; for LEPTNO % Inhn. Plus Copper Observed: copper-plus medium (CuCl2 10 μM).

`O=C(N/N=C/c1c(Cl)ccc(Cl)c1O)c1cccc(F)c1` [Example 367] registered a melting point of 203 to 209 °C. In addition, the “TLB % Control” value with Phytophthora infestans turned out to be 95.0%. Besides, in data set [1], the inhibition of growth at 0.05 µg/mL was 13.1% and the “LEPTNO % Inhn. Plus Copper Observed” value came to 97.9%.

As for `O=C(N/N=C/c1c(Cl)ccc(Cl)c1O)c1ccc(F)cc1` [Example 368], the melting point is 264 to 267 °C. Also, the “TLB % Control” value with Phytophthora infestans was determined as 98.0%. Also, in data set [1], the inhibition of growth at 0.05 µg/mL was 0% and the “LEPTNO % Inhn. Plus Copper Observed” value was 96.9%.

Regarding `O=C(N/N=C/c1c(Cl)ccc(Cl)c1O)c1cccc([N+](=O)[O-])c1` [Example 371], the melting point was 273 to 277 °C. In the data set with Phytophthora infestans, the “TLB % Control” value was 98.0%. In addition, in data set [1], the inhibition of growth at 0.05 µg/mL is 12.6% and the “LEPTNO % Inhn. Plus Copper Observed” value was 96.1%.

`O=C(N/N=C/c1c(Cl)ccc(Cl)c1O)c1ccccc1O` [Example 372]: the melting point fell in the range of 260 to 262 °C. The “TLB % Control” value in the data set with Phytophthora infestans is recorded as 98.0%. Further, in data set [1], the inhibition of growth at 0.05 µg/mL stood at 15.1% and the “LEPTNO % Inhn. Plus Copper Observed” value is on record as 97.4%.

As for `O=C(N/N=C/c1c(Cl)ccc(Cl)c1O)c1ccccc1C(F)(F)F` [Example 373], the melting point is 221 to 222 °C. Moreover, the “TLB % Control” value in the data set with Phytophthora infestans is 90.0%. In data set [1], the inhibition of growth at 0.05 µg/mL turned out to be 0% and the “LEPTNO % Inhn. Plus Copper Observed” value was 97.3%.

Regarding `Cc1ccc(C(=O)N/N=C/c2c(Cl)ccc(Cl)c2O)c(O)c1` [Example 374], the melting point was 248 to 254 °C. Also, in the data set with Phytophthora infestans, the “TLB % Control” value came out at 98.0%. In data set [1], the inhibition of growth at 0.05 µg/mL is 11.1% and the “LEPTNO % Inhn. Plus Copper Observed” value amounted to 98.2%.

On to `O=C(N/N=C/c1c(Cl)ccc(Cl)c1O)c1ccc([N+](=O)[O-])cc1` [Example 375], for which the melting point was 250 to 300 °C (dec.). Moreover, in the data set on Phytophthora infestans, the “TLB % Control” value is 90.0%. In addition, in data set [1], the inhibition of growth at 0.05 µg/mL is 7.2% and the “LEPTNO % Inhn. Plus Copper Observed” value amounted to 98.2%.

For `Cc1cccc(C(=O)N/N=C/c2cc(Cl)cc(C(F)(F)F)c2O)c1` [Example 376], the melting point fell in the range of 199 to 201 °C. The “TLB % Control” value in the data set with Phytophthora infestans was found to be 98.0%. Further, in data set [1], the inhibition of growth at 0.05 µg/mL amounted to 13.6% and the “LEPTNO % Inhn. Plus Copper Observed” value came to 96.5%.

`Cc1ccc(C(=O)N/N=C/c2cc(Cl)cc(C(F)(F)F)c2O)cc1` [Example 377]: the melting point lay within 276 to 278 °C. Besides, in the data set with Phytophthora infestans, the “TLB % Control” value amounted to 100.0%. In data set [1], the inhibition of growth at 0.05 µg/mL was found to be 29.9% and the “LEPTNO % Inhn. Plus Copper Observed” value turned out to be 97.6%.

Compound `O=C(N/N=C/c1cc(Cl)cc(C(F)(F)F)c1O)c1cccc(F)c1` [Example 378] came in with a melting point of 219 to 221 °C. Further, in the data set with Phytophthora infestans, the “TLB % Control” value is 97.0%. Also, in data set [1], the inhibition of growth at 0.05 µg/mL came out at 26.3% and the “LEPTNO % Inhn. Plus Copper Observed” value came to 98.4%.

The compound `O=C(N/N=C/c1cc(Cl)cc(C(F)(F)F)c1O)c1ccc(F)cc1` [Example 379] returned a melting point of 227 to 228 °C. The “TLB % Control” value with Phytophthora infestans came to 100.0%. In data set [1], the inhibition of growth at 0.05 µg/mL came out at 26.7% and the “LEPTNO % Inhn. Plus Copper Observed” value came to 98.2%.

In turn, `O=C(N/N=C/c1cc(Cl)cc(C(F)(F)F)c1O)c1cccc(Cl)c1` [Example 380] returned a melting point of 228 to 229 °C. Also, the “TLB % Control” value with Phytophthora infestans was determined as 100.0%. Besides, in data set [1], the inhibition of growth at 0.05 µg/mL was determined as 36.1% and the “LEPTNO % Inhn. Plus Copper Observed” value worked out at 98.3%.

As for `O=C(N/N=C/c1cc(Cl)cc(C(F)(F)F)c1O)c1cccc([N+](=O)[O-])c1` [Example 382], the melting point lay in the range of 235 to 237 °C. Moreover, the “TLB % Control” value with Phytophthora infestans was found to be 96.0%. In data set [1], the inhibition of growth at 0.05 µg/mL was 19.3% and the “LEPTNO % Inhn. Plus Copper Observed” value is 98.5%.

The compound `O=C(N/N=C/c1cc(Cl)cc(C(F)(F)F)c1O)c1ccc([N+](=O)[O-])cc1` [Example 383] returned a melting point of 245 to 247 °C. Besides, the “TLB % Control” value with Phytophthora infestans was 100.0%. Besides, in data set [1], the inhibition of growth at 0.05 µg/mL is 20.3% and the “LEPTNO % Inhn. Plus Copper Observed” value worked out at 95.7%.

`O=C(N/N=C/c1cc(Cl)cc(C(F)(F)F)c1O)c1ccccc1C(F)(F)F` [Example 385] registered a melting point of 203 to 204 °C. Also, the “TLB % Control” value in the data set with Phytophthora infestans is reported as 100.0%. Also, in data set [1], the inhibition of growth at 0.05 µg/mL was determined as 5.4% and the “LEPTNO % Inhn. Plus Copper Observed” value came out at 94.6%.

Turning to `Cc1ccc(C(=O)N/N=C/c2cc(Cl)cc(C(F)(F)F)c2O)c(O)c1` [Example 386], the melting point was 252 to 254 °C. Moreover, in the data set on Phytophthora infestans, the “TLB % Control” value worked out at 100.0%. Also, in data set [1], the inhibition of growth at 0.05 µg/mL turned out to be 41.1% and the “LEPTNO % Inhn. Plus Copper Observed” value is reported as 98.4%.

In the case of `Cc1cccc(C(=O)N/N=C/c2ccc(Cl)cc2O)c1` [Example 387], the melting point is 201 to 203 °C. For the same compound, the “TLB % Control” value in the data set with Phytophthora infestans was determined as 87.0%. In data set [1], the inhibition of growth at 0.05 µg/mL was found to be 13.5% and the “LEPTNO % Inhn. Plus Copper Observed” value amounted to 96.9%.

For `Cc1ccc(C(=O)N/N=C/c2ccc(Cl)cc2O)cc1` [Example 388], the melting point was 258 to 260 °C. Further, in the data set on Phytophthora infestans, the “TLB % Control” value came to 61.0%. In data set [1], the inhibition of growth at 0.05 µg/mL was determined as 17.2% and the “LEPTNO % Inhn. Plus Copper Observed” value is on record as 98.1%.

`O=C(N/N=C/c1ccc(Cl)cc1O)c1cccc(F)c1` [Example 389] showed a melting point of 218 to 222 °C. Moreover, the “TLB % Control” value with Phytophthora infestans turned out to be 95.0%. Besides, in data set [1], the inhibition of growth at 0.05 µg/mL was 7.7% and the “LEPTNO % Inhn. Plus Copper Observed” value is listed as 97.6%.

With `O=C(N/N=C/c1ccc(Cl)cc1O)c1ccc(F)cc1` [Example 390], the melting point was in the range of 226 to 228 °C. The “TLB % Control” value with Phytophthora infestans amounted to 95.0%. In addition, in data set [1], the inhibition of growth at 0.05 µg/mL came out at 4.2% and the “LEPTNO % Inhn. Plus Copper Observed” value is given as 97.5%.

Compound `O=C(N/N=C/c1ccc(Cl)cc1O)c1cccc([N+](=O)[O-])c1` [Example 393] yielded a melting point of 233 to 238 °C. The “TLB % Control” value in the data set with Phytophthora infestans is on record as 73.0%. Besides, in data set [1], the inhibition of growth at 0.05 µg/mL worked out at 4.3% and the “LEPTNO % Inhn. Plus Copper Observed” value is 96.1%.

`O=C(N/N=C/c1ccc(Cl)cc1O)c1ccc([N+](=O)[O-])cc1` [Example 394] showed a melting point of 278 to 281 °C. In addition, in the data set with Phytophthora infestans, the “TLB % Control” value turned out to be 71.0%. Moreover, in data set [1], the inhibition of growth at 0.05 µg/mL came to 8% and the “LEPTNO % Inhn. Plus Copper Observed” value amounted to 95.9%.

In turn, `O=C(N/N=C/c1ccc(Cl)cc1O)c1ccccc1O` [Example 395] registered a melting point of 210 to 213 °C. The “TLB % Control” value with Phytophthora infestans is listed as 76.0%. Also, in data set [1], the inhibition of growth at 0.05 µg/mL is 8.2% and the “LEPTNO % Inhn. Plus Copper Observed” value worked out at 93.9%.

`O=C(N/N=C/c1ccc(Cl)cc1O)c1ccccc1C(F)(F)F` [Example 396]: the melting point is 197 to 200 °C. Moreover, the “TLB % Control” value in the data set on Phytophthora infestans came out at 49.0%. Further, in data set [1], the inhibition of growth at 0.05 µg/mL is 0% and the “LEPTNO % Inhn. Plus Copper Observed” value is reported as 95.5%.

Consider `Cc1cccc(C(=O)N/N=C/c2c(O)cccc2Cl)c1` [Example 398], for which the melting point was 245 to 248 °C. In the data set with Phytophthora infestans, the “TLB % Control” value is given as 98.0%. Besides, in data set [1], the inhibition of growth at 0.05 µg/mL worked out at 5.4% and the “LEPTNO % Inhn. Plus Copper Observed” value is 94.7%.

`Cc1ccc(C(=O)N/N=C/c2c(O)cccc2Cl)cc1` [Example 399] had a melting point of 250 to 252 °C. Also, the “TLB % Control” value in the data set on Phytophthora infestans amounted to 88.0%. Besides, in data set [1], the inhibition of growth at 0.05 µg/mL is 5.8% and the “LEPTNO % Inhn. Plus Copper Observed” value was found to be 97.1%.

`O=C(N/N=C/c1c(O)cccc1Cl)c1cccc(F)c1` [Example 400] returned a melting point of 257 to 259 °C. Moreover, the “TLB % Control” value with Phytophthora infestans is listed as 96.0%. For the same compound, in data set [1], the inhibition of growth at 0.05 µg/mL was determined as 0.5% and the “LEPTNO % Inhn. Plus Copper Observed” value was 97.9%.

With `O=C(N/N=C/c1c(O)cccc1Cl)c1ccc(F)cc1` [Example 401], the melting point fell in the range of 266 to 268 °C. Further, the “TLB % Control” value in the data set on Phytophthora infestans stood at 98.0%. In addition, in data set [1], the inhibition of growth at 0.05 µg/mL amounted to 0% and the “LEPTNO % Inhn. Plus Copper Observed” value is listed as 94.8%.

The compound `O=C(N/N=C/c1c(O)cccc1Cl)c1cccc(Cl)c1` [Example 402] returned a melting point of 250 to 253 °C. Further, the “TLB % Control” value in the data set on Phytophthora infestans amounted to 100.0%. Besides, in data set [1], the inhibition of growth at 0.05 µg/mL was 0% and the “LEPTNO % Inhn. Plus Copper Observed” value is reported as 95.2%.

Consider `O=C(N/N=C/c1c(O)cccc1Cl)c1cccc([N+](=O)[O-])c1` [Example 404], for which the melting point was in the range of 269 to 270 °C. The “TLB % Control” value in the data set with Phytophthora infestans is on record as 97.0%. Moreover, in data set [1], the inhibition of growth at 0.05 µg/mL stood at 0% and the “LEPTNO % Inhn. Plus Copper Observed” value was 94.9%.

The compound `O=C(N/N=C/c1c(O)cccc1Cl)c1ccccc1O` [Example 406] gave a melting point of 277 to 280 °C. The “TLB % Control” value with Phytophthora infestans came to 98.0%. In data set [1], the inhibition of growth at 0.05 µg/mL was found to be 6.7% and the “LEPTNO % Inhn. Plus Copper Observed” value is 96.1%.

`O=C(N/N=C/c1c(O)cccc1Cl)c1ccccc1C(F)(F)F` [Example 407]: the melting point was in the range of 222 to 226 °C. Moreover, the “TLB % Control” value with Phytophthora infestans came to 70.0%. Also, in data set [1], the inhibition of growth at 0.05 µg/mL amounted to 0% and the “LEPTNO % Inhn. Plus Copper Observed” value was found to be 92.0%.

`Cc1ccc(C(=O)N/N=C/c2c(O)cccc2Cl)c(O)c1` [Example 408] displayed a melting point of 273 to 276 °C. In the data set on Phytophthora infestans, the “TLB % Control” value turned out to be 94.0%. In data set [1], the inhibition of growth at 0.05 µg/mL came out at 8.4% and the “LEPTNO % Inhn. Plus Copper Observed” value was found to be 79.7%.

Compound `O=C(N/N=C/c1cc(Br)cc(F)c1O)c1ccccc1O` [Example 409] gave a melting point of 297 to 299 °C. Besides, in the data set on Phytophthora infestans, the “TLB % Control” value is listed as 98.0%. In addition, in data set [1], the inhibition of growth at 0.05 µg/mL is 7.9% and the “LEPTNO % Inhn. Plus Copper Observed” value was 96.3%.
